Experiments:
[1] = test system: HIV-1 (HTLV IIIB)-induced cytopathic effect in MT4-cells; experiment: Cellular assay: inhibition of HIV-1-induced cytopathic effect in MT4-cells (MTT); format: cell-based; conditions: Human immunodeficiency virus 1, read-out: IC50 in the cellular assay (virus-inhibitory concentration)
Procedure: Inhibition of the HIV-1 (HTLV IIIB)-induced cytopathic effect is measured in MT4-cells as described in the literature (R. Pauwels et al, J. Virol. Meth. 20 309-321 [1988]). Briefly, an HTLV-1 transformed T4 cell line, MT4, which has been shown previously to be highly permissive to HIV infection, serves as a target cell line. Inhibition of HIV-induced cytopathic effect is used as the end point. The viability of both HIV- and mock-infected cells is assessed spectrophotometrically via the in situ-reduction of 3-(4,5-dimethylthiazol-2-yl)-2,5-diphenyltetrazolium bromide (MTT). The comparison of the effects of various concentrations of the agent on HIV- versus mock-infected cells allows the determination of cytotoxic (TC50) and virus-inhibitory (IC50) concentrations.

renin = biological target: T1, renin (Homo sapiens, UniProt P00797); experiment: Inhibition of renin (specificity); format: biochemical
T1 sequence (P00797 67-406): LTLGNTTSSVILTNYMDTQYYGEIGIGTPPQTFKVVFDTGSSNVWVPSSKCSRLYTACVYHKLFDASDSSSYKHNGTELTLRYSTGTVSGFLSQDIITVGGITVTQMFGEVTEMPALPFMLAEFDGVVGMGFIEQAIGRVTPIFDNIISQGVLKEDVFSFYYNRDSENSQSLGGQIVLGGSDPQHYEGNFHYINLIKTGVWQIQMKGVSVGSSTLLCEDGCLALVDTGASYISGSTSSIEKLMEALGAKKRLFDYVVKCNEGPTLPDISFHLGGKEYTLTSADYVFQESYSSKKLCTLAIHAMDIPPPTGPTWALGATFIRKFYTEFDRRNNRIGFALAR

[2] = biological target: T2, recombinant HIV-2-proteinase (Human immunodeficiency virus type 2 subtype A, UniProt P04584); experiment: Assay of peptide cleavage by HIV-proteinase (HIV-2); format: biochemical; conditions: substrate H-Lys-Ala-Arg-Val-Leu-Nph-Glu-Ala-Nle-NH2
T2 construct: recombinant HIV-1- and HIV-2-proteinase
Procedure: (§1) 1. Assay of peptide cleavage by HIV-proteinase
(§2) Inhibition of HIV-proteinase is measured as described in the literature: A. Richards et al., J. Biol. Chem. 265, 773-7736 (1990) and L. H. Philip et al., Biochem. Biophys. Res. Comun. 171,439-444 (1990). Briefly the peptide H-Lys-Ala-Arg-Val-Leu-Nph-Glu- Ala-Nle-NH2 (where Nph is p-nitrophenylalanine and Nle is norleucine) is used as substrate for recombinant HIV-1- and HIV-2-proteinase. Cleavage occurs between the Leu and Nph residues. The reaction is followed spectrophotometrically by the decrease in extinction at 300 nm which is observed upon cleavage.

[3] = biological target: recombinant HIV-1-proteinase (Human immunodeficiency virus type 1 group M subtype B, UniProt P04585); experiment: biochemical
Procedure: as §1, §2

[4] = Assay of oral bioavailability in mice; parameters: species or system Female Balb/c mice; conditions: mouse, in vivo
Procedure: As is known from the literature, peptide based drugs characteristically show poor oral bioavailability. Since with HIV patients long term medication with proteinase inhibitors is anticipated, it is important that a useful drug be orally bioavailable. This is one of the main obstacles in the development of effective drugs in this peptidic structural class. […] This can be shown e.g. in the following test:
For peroral administration, a solution of the test substance (25 mg/ml) in a suitable solvent such as Cremophor RH40^R /Maisine^R /propylene glycol / ethanol (38/32/15/15) is prepared. Female Balb/c mice are fasted for 24 hours prior to the start, and throughout the experiment water is given ad libitum. At various times following drug administration, blood samples are obtained by sacrificing animals under anaesthesia by cutting the vena jugularis, followed by cervical dislocation. Samples are collected in heparinized tubes (typically 0.4-0.6 ml). For sample analysis solid phase extraction and HPLC are used. Drug concentration in the samples is calculated by least-squares linear regression analysis of the peak area ratio (inhibitor/internal standard) of spiked blood standards versus concentration. From the concentration versus time data, the "Area Under the Curve" (AUC) value is calculated by the trapezoidal rule.

cathepsin D = cathepsin D (Homo sapiens, UniProt P07339); experiment: Inhibition of cathepsin D (specificity); format: biochemical
cathepsin D, sequence (P07339 65-412): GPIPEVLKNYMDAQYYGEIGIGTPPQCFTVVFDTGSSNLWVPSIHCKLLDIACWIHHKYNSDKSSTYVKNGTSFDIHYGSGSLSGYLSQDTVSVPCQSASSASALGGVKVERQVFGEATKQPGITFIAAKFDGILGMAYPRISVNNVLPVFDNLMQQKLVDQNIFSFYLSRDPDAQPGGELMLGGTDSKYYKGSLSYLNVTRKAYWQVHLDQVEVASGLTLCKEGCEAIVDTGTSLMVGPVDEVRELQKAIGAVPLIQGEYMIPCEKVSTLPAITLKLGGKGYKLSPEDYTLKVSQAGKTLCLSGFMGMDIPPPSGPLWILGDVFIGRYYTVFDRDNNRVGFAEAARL

T2 sequence (P04584 514-612 limits assumed): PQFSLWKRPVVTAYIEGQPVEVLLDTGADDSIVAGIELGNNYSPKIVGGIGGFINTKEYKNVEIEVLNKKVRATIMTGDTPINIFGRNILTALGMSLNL

inhibition of endogenous proteinase renin (renin): does not inhibit | Ki [2]: 50 nM | Ki [3]: 9.5 nM | oral uptake [4]: excellent oral uptake | inhibition of endogenous proteinase cathepsin D (cathepsin D): does not inhibit
Compound: COc1ccc(CNC(C(=O)NC2c3ccccc3CC2O)C(O)C(Cc2ccccc2)NC(=O)C(NC(=O)OCc2ccccc2)C(C)(C)C)cc1 [Example 2, 4(S)-(Benzyloxycarbonyl-L-tert-leucinoy)amino-3(S)-hydroxy-2(R)-(4-methoxybenzylamino)-5-phenyl-pentanoic acid 1 (S)-amino-2(R)-hydroxyindan-amide]
IC50 [1]: 250 nM

— patent publication US5538997A, “2,4-diamino-3-hydroxycarboxylic acid derivatives” (Sandoz Ltd., priority 1993, dated 1996)
